Reference: article PMC12040169 (PLOS Biology, 2025)

assay: in vitro; settings: human, hela cells, % viability

SMILES	viability at 28.5 h, 10 µM [%]
Cc1[nH]nc2c1C(c1ccc(Cl)cc1)N(CCc1c[nH]c3ccccc13)C2=O (centres unmarked) [CBK287919]	114
CC1=Nc2c(cnn2-c2ccccc2)C2=NCCCN12 [CBK287928]	91.6
Cc1c(C)n(Cc2cccnc2)c2ncn(C3CCCCCC3)c(=N)c12 [CBK287932]	85.9
OCCNc1ncnc2c1ncn2Cc1ccccc1 [CBK287933]	106
COc1cc(/C=C/c2cc(C(F)(F)F)[nH]c(=O)n2)c(Cl)cc1O [CBK287936]	80
CCCCC(=O)/N=C(\N)Nc1nc2ccccc2o1 [CBK287937]	87.8
Cc1cc(Cl)ccc1OCC(=O)Nc1nnc[nH]1 [CBK287940]	86.3
COc1cccc(C2=CC(c3ccccc3Cl)N3N=NNC3=N2)c1 (centres unmarked) [CBK287943]	84.4
c1ccc(Oc2nc3ccccc3n3cnnc23)cc1 [CBK287945]	91.9
O=C(COc1ccccc1Cl)Nc1nnc[nH]1 [CBK287946]	80.1
CC(C)c1nc2c(c(=O)c3ccccc3n2C)c(=O)n1-c1ccccc1 [CBK287947]	97.6
CC1CCCN(c2ncnc3c2[nH]c2ccccc23)C1 (centres unmarked) [CBK287948]	106
CCc1cccc(C)c1N(C(=O)Cn1c(=O)[nH]c2ccccc21)C(C)COC (centres unmarked) [CBK287950]	80.1
CN1CCc2c(c(NCC3CCCO3)nc3[nH]nc(N)c23)C1 (centres unmarked) [CBK287955]	103
Cc1cc(C)c2c3c(sc2n1)C(=O)N(C)CC(=O)N3 [CBK287959]	83.8
COc1ccccc1Nc1nc(C)cc(C)c1C(N)=O [CBK287960]	82.7
CCc1c(C)nc2c(-c3ccc(OC)c(OC)c3)cnn2c1O [CBK287962]	87
CC(C)c1nc(-c2cc3ccccc3nc2O)no1 [CBK287964]	112
Cc1ccc(-n2c3nc(=O)[nH]c(=O)c-3cc3c(Cl)cccc32)c(C)c1 [CBK287965]	83.3
COc1ccc(C2=CC(c3ccc(Cl)cc3)N3N=CNC3=N2)cc1OC (centres unmarked) [CBK287966]	84.3
O=C(c1ccccc1)c1cn[nH]c1-c1ccccc1O [CBK287970]	77.8
O=C(Nc1ccncc1)C1(c2ccccc2)CCCC1 [CBK287972]	111
c1cncc(-c2noc(-c3cc(C4CC4)[nH]n3)n2)c1 [CBK287973]	94.7
CC(=O)Nc1ccc(-c2nc3cnccc3o2)cc1 [CBK287975]	85.9
c1csc(-c2ccn3c(n2)nc2ccccc23)c1 [CBK287976]	83.9

SMILES	viability at 28.5 h, 10 µM [%]
Cc1nc(-c2ccccc2F)sc1C(=O)Nc1ccccn1 [CBK287979]	98.8
C=C(C)Cn1c(=O)nc(N)c2c3c(sc21)CCC3 [CBK287986]	88.2
COc1ccc(-c2cnn3c(N)c4c(nc23)CCC4)cc1 [CBK287987]	97.4
O=C(CCc1nc2ccccc2s1)Nc1nc2ccccc2[nH]1 [CBK287988]	114
O=C(Nc1ccccn1)c1cc(O)c(OCc2ccccc2)cn1 [CBK287989]	89.5
O=C(NC1CCCC1)c1ccc2c(=O)[nH]cnc2c1 [CBK287990]	90.1
COc1ccc(C2(C(=O)NCc3ccncc3)CCOCC2)cc1 [CBK287991]	103
COc1cnc(C(=O)NCc2ccccc2Cl)cc1O [CBK287993]	84.6
O=C(Nc1ccccc1-n1cnnn1)c1ccccc1Cl [CBK287994]	95
COc1ccccc1CCC(=O)Nc1cnn(C)c1 [CBK287995]	117
Cc1ccc(C2CC(=O)Nc3nc(-c4ccccc4)[nH]c(=O)c32)c(C)c1 (centres unmarked) [CBK287998]	108
O=c1[nH]cnc2c1cnn2Cc1ccccc1Cl [CBK287999]	97.1
O=C1CC(c2cc(F)ccc2F)c2c(-c3ccc(Cl)cc3)n[nH]c2N1 (centres unmarked) [CBK288000]	110
Nc1cc(=O)[nH]c(=O)n1Cc1ccc(Cl)cc1 [CBK288002]	112
COc1cccc(CNC(=O)CCc2nc3ccccc3[nH]2)c1 [CBK288003]	115
Cc1ccc(OCC(=O)Nc2ccc3c(c2)nc2n3CCOC2)cc1 [CBK288005]	102
CCCCc1ccc(Nc2ncnc3nc[nH]c23)cc1 [CBK288006]	96.3
O=c1[nH]c2ccccc2n1CCOc1ccccc1 [CBK288008]	98.5
Cc1c(-c2cc(-c3cnn(C)c3C)[nH]n2)cnn1C [CBK288013]	76
CCNc1nnc(-c2c(Cl)c(C)nn2C)s1 [CBK288014]	92.5
Cc1c(C2CC(C(F)(F)F)n3nccc3N2)cnn1C (centres unmarked) [CBK288015]	93.9
O=C(Nc1ccncc1)c1c(O)c2ccccc2[nH]c1=O [CBK288017]	112
Cc1ccc(C)c(-c2nc(-c3cccnc3)no2)c1 [CBK288018]	102
CCCCNc1nnc(-c2cc(C)nn2C)s1 [CBK288019]	91.5
Cc1cc(F)ccc1NC(=O)c1n[nH]cc1Cl [CBK288020]	92.4

SMILES	viability at 28.5 h, 10 µM [%]
CCCCNc1nnc(-c2nn(C)cc2Cl)s1 [CBK288021]	79.4
O=C(O)c1cc(-c2ccc(OC(F)F)cc2)[nH]n1 [CBK288022]	87.1
O=C(Nc1ccn(C23CC4CC(CC(C4)C2)C3)n1)c1ccco1 [CBK288023]	106
O=c1c2[nH]cc(-c3ccccc3)c2ncn1CCc1ccccc1 [CBK288025]	76.9
O=c1[nH]nc2c3c(nc(-c4ccncc4)n12)CCCC3 [CBK288029]	109
O=C(NCc1ccccn1)c1nn[nH]c1Nc1cccc(Cl)c1 [CBK288030]	79.4
O=C(O)Cc1cnnn1-c1ccc(Cl)cc1Cl [CBK288035]	86
COc1ccc(CNc2nc(C)n[nH]2)cc1Cl [CBK288036]	98.9
Cc1n[nH]c(NCc2cccc(Cl)c2Cl)n1 [CBK288037]	107
O=C(O)c1nnn(-c2ccccc2)c1-c1ccncc1 [CBK288041]	95.1
O=C1CC(c2noc(-c3ccncc3)n2)CN1c1ccccc1 (centres unmarked) [CBK288043]	85.4
CN(C(=O)CSc1ncccc1C#N)c1ccccc1 [CBK288044]	98.3
COc1ccccc1NC(=O)c1cn(Cc2ccc(N)cc2)cn1 [CBK288045]	99.5
COc1ccc(Cn2cnc3[nH]ncc3c2=O)cc1 [CBK288049]	91.7
O=c1[nH]c2n[nH]c(=O)n2c2c(-c3ccccc3)c[nH]c12 [CBK288054]	84.2
Cc1ccc(Sc2nccn3c(=O)[nH]nc23)c(C)c1 [CBK288055]	101
Cc1noc(C2=CC=CN3C2=NNC32CCNCC2)n1 [CBK288058]	91
COc1cccc(C2C=C(c3cccnc3)Nc3ncnn32)c1OC (centres unmarked) [CBK288062]	95.1
O=C(NCc1nnc2ccccn12)c1ccccc1 [CBK288064]	110
COc1ccc(C(C)NC(=O)c2cn[nH]c2-c2ccc(Cl)cc2)cc1 (centres unmarked) [CBK288065]	102
CCOc1ccc(Nc2cc(Cl)nc(N)n2)cc1 [CBK288069]	98.7
O=C(CC1C(=O)Nc2ncnn21)Nc1ccccc1 (centres unmarked) [CBK288071]	90.7
O=c1c2nnc3ncnn3c2ccn1-c1ccccc1 [CBK288075]	99.5
COc1cc(-c2nc(N)n[nH]2)cc(OC)c1OC [CBK288077]	103
Fc1ccc(C2=Nn3cnnc3SC2)c(F)c1 [CBK288078]	97

SMILES	viability at 28.5 h, 10 µM [%]
COc1ccc(NC2=NN(c3ccccc3)C(=O)C2)cc1 [CBK288085]	104
Cc1nn(-c2ccccc2)c(Cl)c1C1NC(=O)c2c(sc(C)c2C)N1 (centres unmarked) [CBK288086]	96
CCOc1cc(CNc2nc[nH]n2)cc(Cl)c1OCc1ccccc1F [CBK288088]	103
CCCCn1nnnc1NCc1cccc(OC)c1OC [CBK288091]	104
Cc1nc2c3c(sc2c(=O)[nH]1)NC(=O)CC3c1ccccc1 (centres unmarked) [CBK288094]	93.1
CCCNc1cc(C)c(C#N)c2nc3ccccc3n12 [CBK288097]	94
COc1ccccc1CNc1ncnc2[nH]ncc12 [CBK288100]	99.5
CCN1CCN(c2ncnc3sc(C)c(C)c23)CC1 [CBK288101]	98.6
Cc1ccc(-c2cc(C(=O)NCc3ccc(F)cc3Cl)n[nH]2)cc1 [CBK288102]	85.6
COCCNc1nc2c([nH]1)c(=O)n(C)c(=O)n2C [CBK288104]	90.3
O=C(c1cc(-c2cccs2)[nH]n1)N1CCCCCC1 [CBK288108]	92.1
O=C(c1n[nH]c2c1CCCC2)N1CC(=O)N(CCc2ccccc2)C(=O)C1 [CBK288110]	98.3
O=C(NCCc1ccccc1)c1cc(-c2ccccc2Cl)[nH]n1 [CBK288113]	105
CN(C(=O)c1cc(-c2cccs2)[nH]n1)c1ccccc1 [CBK288115]	86.1
CCOc1ccc(-c2cc(C(=O)NCc3cc(OC)ccc3OC)n[nH]2)cc1 [CBK288116]	85.7
COc1ccc(Nc2n[nH]c3nc(C)cc(=O)n23)cc1 [CBK288117]	91.1
Cn1c(=O)n(C)c2cc(CNCc3ccccn3)ccc21 [CBK288118]	95.4
N#Cc1cc2c(=O)n(-c3ccccn3)ccc2[nH]c1=O [CBK288119]	94.5
CC1CCCN(c2nc3nc[nH]c(=O)c3s2)C1 (centres unmarked) [CBK288120]	83.4
Cc1ccc(C(=O)Nc2noc3ccccc23)cc1 [CBK288124]	88.9
CCOc1ccc(Cl)cc1CNc1nnnn1CC [CBK288128]	92.9
COc1ccc(CNc2nc[nH]n2)c(OC)c1OC [CBK288129]	103
CC(=O)Nc1ccc(-c2nc3ncccc3o2)cc1C [CBK288132]	91.1
